The results in this text go back to ChEMBL document CHEMBL1135135, “Synthesis and cytotoxicity of 2alpha-amido docetaxel analogues” (Bioorg Med Chem Lett, 2002).

Holding throughout (type): functional, cell-based
Common to all, as to details: Homo sapiens

For experiment [1], the system named is A549. Description: Inhibitory activity against Taxol-resistant A549 lung cancer cell line.
The subject of experiment [2] is A549. Description: Inhibitory activity against A549 lung cancer cell line.
In experiment [3] the test system is KB. Description: Inhibitory activity against KB nasopharynx cancer cell line.
Experiment [4] relates to KB. Kind of experiment: Inhibitory activity against Vincristine-resistant KB nasopharynx cancer cell line.
For experiment [5], the system named is MCF7. Kind of experiment: Inhibitory activity against MCF-7 breast cancer cell line.
Experiment [6] relates to MCF7. Kind of experiment: Inhibitory activity against Adriamycin-resistant MCF-7 breast cancer cell line.

By IC50 is commonly meant the concentration needed to halve the response being measured. Read a low IC50 as inhibition by little substance.

In the case of `COc1ccc(C(=O)N[C@H]2C3[C@](C)(C(=O)[C@H](OC(C)=O)C4=C(C)[C@@H](OC(=O)[C@@H](O)[C@@H](NC(=O)OC(C)(C)C)c5ccccc5)C[C@]2(O)C4(C)C)[C@@H](O)C[C@H]2OC[C@@]32OC(C)=O)cc1` (some centres undefined), the IC50 in the experiment on A549 [1] is greater than 1000 nM; with A549 [2], greater than 100 nM; in the experiment on KB [3], greater than 100 nM; in the experiment on KB [4], greater than 1000 nM.
With `CC(=O)O[C@H]1C(=O)[C@@]2(C)C([C@H](NC(=O)c3ccccc3)[C@]3(O)C[C@H](OC(=O)[C@@H](O)[C@@H](NC(=O)OC(C)(C)C)c4ccccc4)C(C)=C1C3(C)C)[C@]1(OC(C)=O)CO[C@@H]1C[C@@H]2O` (some centres undefined), the IC50 in the experiment with A549 [2] turned out to be 250 nM; with KB [3], 150 nM.
Turning to `CC(=O)O[C@H]1C(=O)[C@@]2(C)C([C@H](NC(=O)c3cccc(Cl)c3)[C@]3(O)C[C@H](OC(=O)[C@@H](O)[C@@H](NC(=O)OC(C)(C)C)c4ccccc4)C(C)=C1C3(C)C)[C@@](CO)(OC(C)=O)[C@@H](O)C[C@@H]2O` (some centres undefined), the IC50 in the experiment on A549 [1] is greater than 1000 nM; with A549 [2] it was greater than 100 nM; with KB [3], greater than 100 nM; with KB [4] it was greater than 1000 nM.
Regarding `CC(=O)O[C@H]1C(=O)[C@@]2(C)C([C@H](NC(=O)OCc3ccccc3)[C@]3(O)C[C@H](OC(=O)[C@@H](O)[C@@H](NC(=O)OC(C)(C)C)c4ccccc4)C(C)=C1C3(C)C)[C@]1(OC(C)=O)CO[C@@H]1C[C@@H]2O` (some centres undefined), the IC50 with A549 [1] is greater than 1000 nM; with A549 [2], greater than 100 nM; in the experiment on KB [3] it was greater than 100 nM; in the experiment with KB [4], greater than 1000 nM.
Take `CC(=O)O[C@H]1C(=O)[C@@]2(C)C([C@H](NC(=O)c3cccc(Cl)c3)[C@]3(O)C[C@H](OC(=O)[C@@H](O)[C@@H](NC(=O)OC(C)(C)C)c4ccccc4)C(C)=C1C3(C)C)[C@]1(OC(C)=O)CO[C@@H]1C[C@@H]2O` (some centres undefined): the IC50 in the experiment with MCF7 [5] was 110 nM; in the experiment on A549 [1], 1100 nM; in the experiment on A549 [2], 95 nM; with KB [3], 78 nM; in the experiment with MCF7 [6], greater than 4500 nM; in the experiment on KB [4], greater than 1000 nM.
`CC(=O)O[C@H]1C(=O)[C@@]2(C)C([C@H](NC(=O)c3ccc(Cl)cc3)[C@]3(O)C[C@H](OC(=O)[C@@H](O)[C@@H](NC(=O)OC(C)(C)C)c4ccccc4)C(C)=C1C3(C)C)[C@@](CO)(OC(C)=O)[C@@H](O)C[C@@H]2O` (some centres undefined): the IC50 was greater than 1000 nM in the experiment on A549 [1], greater than 100 nM in the experiment with A549 [2], greater than 100 nM in the experiment with KB [3] and greater than 1000 nM in the experiment on KB [4].
`COc1cccc(C(=O)N[C@H]2C3[C@](C)(C(=O)[C@H](OC(C)=O)C4=C(C)[C@@H](OC(=O)[C@@H](O)[C@@H](NC(=O)OC(C)(C)C)c5ccccc5)C[C@]2(O)C4(C)C)[C@@H](O)C[C@H]2OC[C@@]32OC(C)=O)c1` (some centres undefined): the IC50 in the experiment with MCF7 [5] is 73 nM; in the experiment with A549 [1], 1000 nM; with A549 [2] it was 83 nM; in the experiment on KB [3], 74 nM; in the experiment on MCF7 [6], greater than 4600 nM; with KB [4], 1100 nM.
As to `CC(=O)O[C@H]1C(=O)[C@@]2(C)C([C@H](NC(=O)c3ccc(Cl)cc3)[C@]3(O)C[C@H](OC(=O)[C@@H](O)[C@@H](NC(=O)OC(C)(C)C)c4ccccc4)C(C)=C1C3(C)C)[C@]1(OC(C)=O)CO[C@@H]1C[C@@H]2O` (some centres undefined), the IC50 in the experiment on A549 [1] was greater than 1000 nM; in the experiment with A549 [2] it was greater than 100 nM; in the experiment with KB [3], greater than 100 nM; in the experiment on KB [4] it was greater than 1000 nM.
On to `CC(=O)O[C@H]1C(=O)[C@@]2(C)C([C@H](NC(=O)c3ccccc3)[C@]3(O)C[C@H](OC(=O)[C@@H](O)[C@@H](NC(=O)OC(C)(C)C)c4ccccc4)C(C)=C1C3(C)C)[C@@](CO)(OC(C)=O)[C@@H](O)C[C@@H]2O` (some centres undefined), for which the IC50 in the experiment with A549 [1] was greater than 1000 nM; with A549 [2], greater than 100 nM; in the experiment with KB [3], greater than 100 nM; in the experiment on KB [4], greater than 1000 nM.
In the case of `CC(=O)O[C@H]1C(=O)[C@@]2(C)C([C@H](NC(=O)c3ccc([N+](=O)[O-])cc3)[C@]3(O)C[C@H](OC(=O)[C@@H](O)[C@@H](NC(=O)OC(C)(C)C)c4ccccc4)C(C)=C1C3(C)C)[C@]1(OC(C)=O)CO[C@@H]1C[C@@H]2O` (some centres undefined), the IC50 in the experiment with A549 [1] was greater than 1000 nM; in the experiment with A549 [2] it was greater than 100 nM; with KB [3], greater than 100 nM; in the experiment with KB [4] it was greater than 1000 nM.
As to `CC(=O)O[C@@]12CO[C@@H]1C[C@H](O)[C@@]1(C)C(=O)[C@H](O)C3=C(C)[C@@H](OC(=O)[C@H](O)[C@@H](NC(=O)OC(C)(C)C)c4ccccc4)C[C@@](O)([C@@H](OC(=O)c4ccccc4)[C@H]21)C3(C)C` [DOCETAXEL], the IC50 in the experiment with MCF7 [5] turned out to be 7.9 nM; with A549 [1], 98 nM; in the experiment on A549 [2] it was 4.1 nM; in the experiment on KB [3], 4.4 nM; in the experiment with MCF7 [6], 4200 nM; with KB [4], 200 nM.
In the case of `CC(=O)O[C@H]1C(=O)[C@@]2(C)[C@H]([C@H](OC(=O)c3ccccc3)[C@]3(O)C[C@H](OC(=O)[C@H](O)[C@@H](NC(=O)c4ccccc4)c4ccccc4)C(C)=C1C3(C)C)[C@]1(OC(C)=O)CO[C@@H]1C[C@@H]2O` [PACLITAXEL], the IC50 in the experiment on MCF7 [5] is 5.5 nM; in the experiment with A549 [1], 960 nM; with A549 [2], 12 nM; in the experiment on KB [3], 9.1 nM; in the experiment with MCF7 [6], greater than 6000 nM; in the experiment with KB [4], 1700 nM.
